Test results: patent US20030129629A1, “Methods and compositions for the identification, assessment, prevention, and therapy of human cancers” (Millennium Pharmaceuticals, Inc., priority 2000, published 2003)
Read-outs that look alike come from different tables or passages of the source.

How the values were obtained:
[1] = test system: 60 cancer cell lines (NCI 60 cancer cell line series); conditions: cited from earlier work
[2] = test system: 60 cancer cell lines (NCI 60 cancer cell line series); experiment: NCI-DTP in vitro cancer screen, sulforhodamine B (SRB) growth inhibition, 48 hour exposure; type: cell-based, human
Procedure, shortened: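 NCI-DTP panel of 60 cancer cell lines plated day 0 at line-specific densities, exposed from day 1 to compound at 5 ten-fold-spaced doses in duplicate wells. After 48 h, cell mass stained with sulforhodamine B; −log GI50 derived from dose–response curves, averaged, and classed Low, Medium or High sensitivity.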

Substance: Carboplatin
- −Log (GI50) ([1]; Breast BT-549 CL5013): 3.7
- −Log (GI50) ([1]; Breast HS-578T CL5006): 3.8
- −Log (GI50) ([1]; Breast MCF7(I) CL5001): 3.9
- −Log (GI50) ([1]; Breast MCF7/ADRr CL5002): 3.8
- −Log (GI50) ([1]; Breast MDA-MB-231 CL5005): 3.6
- −Log (GI50) ([1]; Breast MDA-MB-435 CL5011): 3.7
- −Log (GI50) ([1]; Breast MDA-N CL5012): 3.8
- −Log (GI50) ([1]; Breast T-47D CL5014): 3.6
- −Log (GI50) ([1]; CNS SF-268 CL12014): 4.3
- −Log (GI50) ([1]; CNS SF-295 CL12015): 4.2
- −Log (GI50) ([1]; CNS SF-539 CL12016): 4.1
- −Log (GI50) ([1]; CNS SNB-19 CL12002): 3.8
- −Log (GI50) ([1]; CNS SNB-75(I) CL12005): 4.0
- −Log (GI50) ([1]; CNS U251(I) CL12009): 4.2
- −Log (GI50) ([1]; Colon COLO-250 CL4010): 3.6
- −Log (GI50) ([1]; Colon HCC-2998 CL4002): 3.7
- −Log (GI50) ([1]; Colon HCT-15 CL4015): 3.6
- −Log (GI50) ([1]; Colon HCT-116 CL4003): 3.7
- −Log (GI50) ([1]; Colon HT29(I) CL4001): 3.7
- −Log (GI50) ([1]; Colon KM12 CL4017): 3.7
- −Log (GI50) ([1]; Colon SW-620 CL4009): 3.8
- −Log (GI50) ([1]; Leukemia CCRF-CEM(I) CL7003): 4.2
- −Log (GI50) ([1]; Leukemia HL-60(I) CL7008): 4.5
- −Log (GI50) ([1]; Leukemia K562(I) CL7005): 3.8
- −Log (GI50) ([1]; Leukemia MOLT-4 CL7006): 4.1
- −Log (GI50) ([1]; Leukemia RPMI-8226(I) CL7010): 3.8
- −Log (GI50) ([1]; Leukemia SR CL7019): 4.1
- −Log (GI50) ([1]; Melanoma LOX IMVI CL10001): 4.2
- −Log (GI50) ([1]; Melanoma M14 CL10014): 4.0
- −Log (GI50) ([1]; Melanoma MALME-3M CL10002): 4.1
- −Log (GI50) ([1]; Melanoma SK-MEL-2 CL10005): 3.8
- −Log (GI50) ([1]; Melanoma SK-MEL-5 CL10007): 4.0
- −Log (GI50) ([1]; Melanoma SK-MEL-28 CL10008): 3.8
- −Log (GI50) ([1]; Melanoma UACC-62 CL10020): 4.4
- −Log (GI50) ([1]; Melanoma UACC-257 CL10021): 3.9
- −Log (GI50) ([1]; NSCLC A549/ATCC CL1004): 4.0
- −Log (GI50) ([1]; NSCLC EKVX CL1008): 3.7
- −Log (GI50) ([1]; NSCLC HOP-62 CL1026): 3.9
- −Log (GI50) ([1]; NSCLC HOP-92 CL1029): 4.0
- −Log (GI50) ([1]; NSCLC NCI-H23(I) CL1001): 4.3
- −Log (GI50) ([1]; NSCLC NCI-H226 CL1013): 3.9
- −Log (GI50) ([1]; NSCLC NCI-H332M CL1017): 3.7
- −Log (GI50) ([1]; NSCLC NCI-H460 CL1021): 4.5
- −Log (GI50) ([1]; NSCLC NCI-H522 CL1003): 4.3
- −Log (GI50) ([1]; Ovarian IGROV1 CL6010): 4.3
- −Log (GI50) ([1]; Ovarian OVCAR-3 CL6001): 4.2
- −Log (GI50) ([1]; Ovarian OVCAR-4 CL6002): 4.1
- −Log (GI50) ([1]; Ovarian OVCAR-5 CL6003): 3.6
- −Log (GI50) ([1]; Ovarian OVCAR-8 CL6005): 3.7
- −Log (GI50) ([1]; Ovarian SK-OV-3 CL6011): 3.7
- −Log (GI50) ([1]; Prostate DU-145 CL11003): 3.9
- −Log (GI50) ([1]; Prostate PC-3(I) CL11001): 3.6
- −Log (GI50) ([1]; Renal 786-0 CL9018): 4.0
- −Log (GI50) ([1]; Renal A498 CL9013): 3.7
- −Log (GI50) ([1]; Renal ACHN CL9023): 4.1
- −Log (GI50) ([1]; Renal CAKI-1 CL9015): 4.1
- −Log (GI50) ([1]; Renal RXF-393 CL9016): 4.2
- −Log (GI50) ([1]; Renal SN12C CL9008): 3.8
- −Log (GI50) ([1]; Renal TK10 CL9024): 3.7
- −Log (GI50) ([1]; Renal UO-31 CL9004): 3.8
- classification of cell line as Low(1), Medium(2), High(3) sensitivity to compound ([2]; Breast BT-549 CL5013): 2
- classification of cell line as Low(1), Medium(2), High(3) sensitivity to compound ([2]; Breast HS-578T CL5006): 2
- classification of cell line as Low(1), Medium(2), High(3) sensitivity to compound ([2]; Breast MCF7(I) CL5001): 2
- classification of cell line as Low(1), Medium(2), High(3) sensitivity to compound ([2]; Breast MCF7/ADRr CL5002): 2
- classification of cell line as Low(1), Medium(2), High(3) sensitivity to compound ([2]; Breast MDA-MB-231 CL5005): 1
- classification of cell line as Low(1), Medium(2), High(3) sensitivity to compound ([2]; Breast MDA-MB-435 CL5011): 1
- classification of cell line as Low(1), Medium(2), High(3) sensitivity to compound ([2]; Breast MDA-N CL5012): 2
- classification of cell line as Low(1), Medium(2), High(3) sensitivity to compound ([2]; Breast T-47D CL5014): 1
- classification of cell line as Low(1), Medium(2), High(3) sensitivity to compound ([2]; CNS SF-268 CL12014): 3
- classification of cell line as Low(1), Medium(2), High(3) sensitivity to compound ([2]; CNS SF-295 CL12015): 3
- classification of cell line as Low(1), Medium(2), High(3) sensitivity to compound ([2]; CNS SF-539 CL12016): 2
- classification of cell line as Low(1), Medium(2), High(3) sensitivity to compound ([2]; CNS SNB-19 CL12002): 2
- classification of cell line as Low(1), Medium(2), High(3) sensitivity to compound ([2]; CNS SNB-75(I) CL12005): 2
- classification of cell line as Low(1), Medium(2), High(3) sensitivity to compound ([2]; CNS U251(I) CL12009): 2
- classification of cell line as Low(1), Medium(2), High(3) sensitivity to compound ([2]; Colon COLO-250 CL4010): 1
- classification of cell line as Low(1), Medium(2), High(3) sensitivity to compound ([2]; Colon HCC-2998 CL4002): 1
- classification of cell line as Low(1), Medium(2), High(3) sensitivity to compound ([2]; Colon HCT-15 CL4015): 1
- classification of cell line as Low(1), Medium(2), High(3) sensitivity to compound ([2]; Colon HCT-116 CL4003): 2
- classification of cell line as Low(1), Medium(2), High(3) sensitivity to compound ([2]; Colon HT29(I) CL4001): 1
- classification of cell line as Low(1), Medium(2), High(3) sensitivity to compound ([2]; Colon KM12 CL4017): 1
- classification of cell line as Low(1), Medium(2), High(3) sensitivity to compound ([2]; Colon SW-620 CL4009): 2
- classification of cell line as Low(1), Medium(2), High(3) sensitivity to compound ([2]; Leukemia CCRF-CEM(I) CL7003): 2
- classification of cell line as Low(1), Medium(2), High(3) sensitivity to compound ([2]; Leukemia HL-60(I) CL7008): 3
- classification of cell line as Low(1), Medium(2), High(3) sensitivity to compound ([2]; Leukemia K562(I) CL7005): 2
- classification of cell line as Low(1), Medium(2), High(3) sensitivity to compound ([2]; Leukemia MOLT-4 CL7006): 2
- classification of cell line as Low(1), Medium(2), High(3) sensitivity to compound ([2]; Leukemia RPMI-8226(I) CL7010): 2
- classification of cell line as Low(1), Medium(2), High(3) sensitivity to compound ([2]; Leukemia SR CL7019): 2
- classification of cell line as Low(1), Medium(2), High(3) sensitivity to compound ([2]; Melanoma LOX IMVI CL10001): 2
- classification of cell line as Low(1), Medium(2), High(3) sensitivity to compound ([2]; Melanoma M14 CL10014): 2
- classification of cell line as Low(1), Medium(2), High(3) sensitivity to compound ([2]; Melanoma MALME-3M CL10002): 2
- classification of cell line as Low(1), Medium(2), High(3) sensitivity to compound ([2]; Melanoma SK-MEL-2 CL10005): 2
- classification of cell line as Low(1), Medium(2), High(3) sensitivity to compound ([2]; Melanoma SK-MEL-28 CL10008): 2
- sensitivity classification Low(1)/Medium(2)/High(3) ([2]; NSCLC NCI-H23(I) CL1001): 3
- sensitivity classification Low(1)/Medium(2)/High(3) ([2]; NSCLC NCI-H332M CL1017): 1
- sensitivity classification Low(1)/Medium(2)/High(3) ([2]; NSCLC NCI-H460 CL1021): 3
- sensitivity classification Low(1)/Medium(2)/High(3) ([2]; NSCLC NCI-H522 CL1003): 3
- sensitivity classification Low(1)/Medium(2)/High(3) ([2]; Ovarian IGROV1 CL6010): 3
- sensitivity classification Low(1)/Medium(2)/High(3) ([2]; Ovarian OVCAR-3 CL6001): 2
- sensitivity classification Low(1)/Medium(2)/High(3) ([2]; Ovarian OVCAR-4 CL6002): 2
- sensitivity classification Low(1)/Medium(2)/High(3) ([2]; Ovarian OVCAR-5 CL6003): 1
- sensitivity classification Low(1)/Medium(2)/High(3) ([2]; Ovarian OVCAR-8 CL6005): 2
- sensitivity classification Low(1)/Medium(2)/High(3) ([2]; Ovarian SK-OV-3 CL6011): 2
- sensitivity classification Low(1)/Medium(2)/High(3) ([2]; Prostate DU-145 CL11003): 2
- sensitivity classification Low(1)/Medium(2)/High(3) ([2]; Prostate PC-3(I) CL11001): 1
- sensitivity classification Low(1)/Medium(2)/High(3) ([2]; Renal 786-0 CL9018): 2
- sensitivity classification Low(1)/Medium(2)/High(3) ([2]; Renal A498 CL9013): 1
- sensitivity classification Low(1)/Medium(2)/High(3) ([2]; Renal ACHN CL9023): 2
- sensitivity classification Low(1)/Medium(2)/High(3) ([2]; Renal CAKI-1 CL9015): 2
- sensitivity classification Low(1)/Medium(2)/High(3) ([2]; Renal RXF-393 CL9016): 2
- sensitivity classification Low(1)/Medium(2)/High(3) ([2]; Renal SN12C CL9008): 2
- sensitivity classification Low(1)/Medium(2)/High(3) ([2]; Renal TK10 CL9024): 1
- sensitivity classification Low(1)/Medium(2)/High(3) ([2]; Renal UO-31 CL9004): 2
